Assay results from publication PMC8217266 (Clinical Pharmacology and Therapeutics, 2021).

Assays:
[1] = molecular target: T1, human OAT1 (Homo sapiens, UniProt Q4U2R8); test: cell-based
T1 sequence (Q4U2R8 1-563): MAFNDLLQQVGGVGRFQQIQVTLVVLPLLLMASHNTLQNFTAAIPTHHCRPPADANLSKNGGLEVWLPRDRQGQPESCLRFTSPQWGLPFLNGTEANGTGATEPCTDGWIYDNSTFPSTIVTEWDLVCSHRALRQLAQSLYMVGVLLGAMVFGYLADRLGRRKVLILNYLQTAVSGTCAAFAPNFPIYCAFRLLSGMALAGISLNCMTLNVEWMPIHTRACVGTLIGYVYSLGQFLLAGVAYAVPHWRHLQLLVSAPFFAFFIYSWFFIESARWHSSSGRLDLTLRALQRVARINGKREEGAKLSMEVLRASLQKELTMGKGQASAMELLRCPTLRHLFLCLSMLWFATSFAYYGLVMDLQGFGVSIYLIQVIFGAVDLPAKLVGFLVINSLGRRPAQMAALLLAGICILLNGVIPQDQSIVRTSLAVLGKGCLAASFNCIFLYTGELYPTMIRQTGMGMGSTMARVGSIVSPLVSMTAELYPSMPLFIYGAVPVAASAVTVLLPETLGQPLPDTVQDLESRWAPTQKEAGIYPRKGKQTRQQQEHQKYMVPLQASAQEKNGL

[2] = test system: transporters at major organ sites; test: Prediction of transporter-mediated inhibition / DDI potential; parameters: species or system human; details: of 11 transporters; FDA criteria
[3] = molecular target: human MATE2 (Homo sapiens, UniProt Q86VL8); test: cell-based
[4] = molecular target: T2, human OAT3 (Homo sapiens, UniProt Q8TCC7); test: cell-based
T2 sequence (Q8TCC7 1-542): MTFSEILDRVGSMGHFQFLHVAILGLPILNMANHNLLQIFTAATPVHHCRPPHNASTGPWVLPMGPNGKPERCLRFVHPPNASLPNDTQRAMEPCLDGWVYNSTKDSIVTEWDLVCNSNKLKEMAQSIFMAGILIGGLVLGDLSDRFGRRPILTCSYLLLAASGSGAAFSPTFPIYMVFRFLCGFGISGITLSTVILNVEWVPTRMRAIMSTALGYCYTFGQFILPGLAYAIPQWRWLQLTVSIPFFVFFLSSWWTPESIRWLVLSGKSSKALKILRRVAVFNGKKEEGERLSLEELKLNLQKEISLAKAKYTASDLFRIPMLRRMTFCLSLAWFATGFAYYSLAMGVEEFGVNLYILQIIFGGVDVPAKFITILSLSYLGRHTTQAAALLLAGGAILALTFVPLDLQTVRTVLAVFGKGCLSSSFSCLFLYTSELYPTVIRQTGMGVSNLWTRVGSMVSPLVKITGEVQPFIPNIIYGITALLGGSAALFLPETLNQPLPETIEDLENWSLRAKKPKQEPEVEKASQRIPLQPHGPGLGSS

[5] = molecular target: T3, BCRP (Homo sapiens, UniProt Q9UNQ0); test: biochemical
T3 sequence (Q9UNQ0 1-655): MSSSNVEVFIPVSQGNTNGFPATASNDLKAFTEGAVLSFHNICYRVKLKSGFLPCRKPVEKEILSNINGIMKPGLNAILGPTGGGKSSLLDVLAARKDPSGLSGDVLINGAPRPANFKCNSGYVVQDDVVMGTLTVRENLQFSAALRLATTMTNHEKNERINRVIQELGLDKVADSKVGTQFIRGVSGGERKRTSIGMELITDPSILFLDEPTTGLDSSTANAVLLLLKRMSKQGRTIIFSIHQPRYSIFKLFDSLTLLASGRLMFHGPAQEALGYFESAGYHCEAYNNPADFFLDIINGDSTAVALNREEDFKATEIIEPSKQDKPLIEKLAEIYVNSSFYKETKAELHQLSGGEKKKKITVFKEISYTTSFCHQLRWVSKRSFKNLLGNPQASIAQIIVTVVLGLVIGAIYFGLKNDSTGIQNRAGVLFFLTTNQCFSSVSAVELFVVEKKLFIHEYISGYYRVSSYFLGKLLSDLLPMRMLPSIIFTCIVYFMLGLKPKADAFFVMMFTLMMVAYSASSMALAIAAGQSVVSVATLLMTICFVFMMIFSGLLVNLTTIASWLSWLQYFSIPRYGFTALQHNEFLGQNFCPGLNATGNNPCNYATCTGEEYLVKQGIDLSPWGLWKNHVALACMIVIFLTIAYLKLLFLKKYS

[6] = molecular target: P-gp (Homo sapiens, UniProt P08183); test: biochemical
[7] = molecular target: T4, human OCT1 (Homo sapiens, UniProt O15245); test: cell-based
T4 sequence (O15245 1-554): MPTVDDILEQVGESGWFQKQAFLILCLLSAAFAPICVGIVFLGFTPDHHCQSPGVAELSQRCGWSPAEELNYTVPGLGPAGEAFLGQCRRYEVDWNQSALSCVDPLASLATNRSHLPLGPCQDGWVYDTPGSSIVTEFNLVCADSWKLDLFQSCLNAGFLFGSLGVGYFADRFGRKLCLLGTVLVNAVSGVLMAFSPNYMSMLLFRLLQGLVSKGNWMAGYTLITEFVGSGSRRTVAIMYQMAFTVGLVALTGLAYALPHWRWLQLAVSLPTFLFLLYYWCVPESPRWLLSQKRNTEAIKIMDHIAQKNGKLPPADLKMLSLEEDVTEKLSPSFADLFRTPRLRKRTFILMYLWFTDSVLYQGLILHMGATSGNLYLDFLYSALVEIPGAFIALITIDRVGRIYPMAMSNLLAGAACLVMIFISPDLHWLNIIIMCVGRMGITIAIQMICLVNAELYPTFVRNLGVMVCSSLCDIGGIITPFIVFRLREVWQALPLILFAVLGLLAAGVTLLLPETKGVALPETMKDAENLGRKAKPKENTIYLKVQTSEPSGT

[8] = molecular target: T5, human MATE1 (Homo sapiens, UniProt Q96FL8); test: cell-based
T5 sequence (Q96FL8 1-570): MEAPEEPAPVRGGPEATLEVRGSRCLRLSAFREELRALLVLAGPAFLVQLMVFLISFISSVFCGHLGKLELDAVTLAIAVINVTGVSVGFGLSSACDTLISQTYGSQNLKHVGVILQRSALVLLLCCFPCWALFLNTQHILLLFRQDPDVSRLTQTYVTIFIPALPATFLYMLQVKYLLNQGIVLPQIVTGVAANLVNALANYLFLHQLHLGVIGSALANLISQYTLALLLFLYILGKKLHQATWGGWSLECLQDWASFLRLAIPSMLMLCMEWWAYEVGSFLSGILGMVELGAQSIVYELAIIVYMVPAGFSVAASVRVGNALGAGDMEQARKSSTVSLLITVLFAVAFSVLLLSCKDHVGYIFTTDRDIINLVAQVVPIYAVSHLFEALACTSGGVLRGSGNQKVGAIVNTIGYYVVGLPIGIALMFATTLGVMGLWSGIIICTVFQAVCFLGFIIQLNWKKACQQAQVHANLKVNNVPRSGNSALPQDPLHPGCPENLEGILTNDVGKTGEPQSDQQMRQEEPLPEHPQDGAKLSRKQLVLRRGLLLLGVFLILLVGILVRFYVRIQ

[9] = molecular target: T2, human OAT3; details: human
[10] = test system: triglycerides, LDL cholesterol, and total cholesterol, biomarkers of OCT1 activity; test: UCSF EHR analysis: lipid levels in patients with HIV, on vs off drug; assay type: in vivo, human

Chain of P-gp (P08183 whole entry): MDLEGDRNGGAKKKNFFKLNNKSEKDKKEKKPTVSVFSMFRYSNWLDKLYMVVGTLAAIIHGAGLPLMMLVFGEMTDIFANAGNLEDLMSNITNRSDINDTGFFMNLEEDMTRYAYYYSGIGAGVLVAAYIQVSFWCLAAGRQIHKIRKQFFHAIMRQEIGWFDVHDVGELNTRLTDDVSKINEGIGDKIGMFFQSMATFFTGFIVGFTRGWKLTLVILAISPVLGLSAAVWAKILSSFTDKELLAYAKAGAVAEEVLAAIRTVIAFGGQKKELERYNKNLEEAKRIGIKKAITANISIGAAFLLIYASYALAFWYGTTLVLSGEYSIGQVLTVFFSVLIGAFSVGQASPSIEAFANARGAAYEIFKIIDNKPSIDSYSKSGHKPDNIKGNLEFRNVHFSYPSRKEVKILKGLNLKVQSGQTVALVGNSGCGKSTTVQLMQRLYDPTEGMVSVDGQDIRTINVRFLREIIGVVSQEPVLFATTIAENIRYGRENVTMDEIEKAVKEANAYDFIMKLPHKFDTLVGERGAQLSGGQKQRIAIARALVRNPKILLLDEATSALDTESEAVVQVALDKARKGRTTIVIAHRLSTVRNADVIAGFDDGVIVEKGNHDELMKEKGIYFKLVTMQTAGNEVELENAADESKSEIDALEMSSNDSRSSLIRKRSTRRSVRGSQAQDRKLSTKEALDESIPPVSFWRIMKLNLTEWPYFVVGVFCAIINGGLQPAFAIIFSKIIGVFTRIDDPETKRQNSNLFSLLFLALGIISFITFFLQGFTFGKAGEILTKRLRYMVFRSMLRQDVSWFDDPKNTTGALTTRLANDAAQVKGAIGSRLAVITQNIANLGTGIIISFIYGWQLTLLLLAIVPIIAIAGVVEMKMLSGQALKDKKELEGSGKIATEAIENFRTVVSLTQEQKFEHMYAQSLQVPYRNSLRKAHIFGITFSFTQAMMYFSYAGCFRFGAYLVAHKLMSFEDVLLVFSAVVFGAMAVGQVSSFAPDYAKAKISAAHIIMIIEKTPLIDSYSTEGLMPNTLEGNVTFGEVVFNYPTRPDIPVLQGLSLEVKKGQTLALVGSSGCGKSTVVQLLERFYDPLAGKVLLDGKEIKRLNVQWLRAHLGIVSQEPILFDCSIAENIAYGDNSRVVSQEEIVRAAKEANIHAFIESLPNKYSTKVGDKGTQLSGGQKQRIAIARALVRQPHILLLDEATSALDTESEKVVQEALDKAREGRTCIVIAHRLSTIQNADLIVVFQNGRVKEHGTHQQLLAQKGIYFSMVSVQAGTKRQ
Chain of human MATE2 (Q86VL8 1-566 isoform Q86VL8-3): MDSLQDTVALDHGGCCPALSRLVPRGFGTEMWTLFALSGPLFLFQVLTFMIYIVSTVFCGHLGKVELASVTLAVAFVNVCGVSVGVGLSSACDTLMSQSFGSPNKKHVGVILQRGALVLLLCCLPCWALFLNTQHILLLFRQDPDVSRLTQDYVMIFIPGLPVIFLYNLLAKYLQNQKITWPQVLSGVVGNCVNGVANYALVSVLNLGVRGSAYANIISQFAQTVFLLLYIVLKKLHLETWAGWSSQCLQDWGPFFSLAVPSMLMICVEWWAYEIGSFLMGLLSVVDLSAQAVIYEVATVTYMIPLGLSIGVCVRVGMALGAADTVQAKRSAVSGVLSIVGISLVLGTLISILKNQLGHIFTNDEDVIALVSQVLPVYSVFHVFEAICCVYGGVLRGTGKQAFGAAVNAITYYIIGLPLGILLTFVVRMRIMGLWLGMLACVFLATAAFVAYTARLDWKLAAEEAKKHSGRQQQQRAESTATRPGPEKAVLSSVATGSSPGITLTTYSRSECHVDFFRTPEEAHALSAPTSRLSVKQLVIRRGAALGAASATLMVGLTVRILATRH

SMILES	IC50 [1] [µM]	No. of transporters at major organ sites inhibited at clinical concentrations [2]	IC50 [3] [µM]	IC50 [4] [µM]	IC50 [5] [µM]	IC50 [6] [µM]	IC50 [7] [µM]	IC50 [8] [µM]	Cu,max/IC50 OAT3 [9]	LDL cholesterol, Average On drug ([10]; matched 1:1, n=719 each, off drug 99.5, P 0.0033)	Triglyceride, Average On drug ([10]; matched 1:1, n=782 each, off drug 162, P 7.8E-12)	Total cholesterol, Average On drug ([10]; matched 1:1, n=803 each, off drug 168, P 3.1E-13)	LDL cholesterol, Median On drug ([10]; matched 1:1, off drug 96)	Triglyceride, Median On drug ([10]; matched 1:1, off drug 124)	Total cholesterol, Median On drug ([10]; matched 1:1, off drug 165)
CN(C)C(=O)COC(=O)Cc1ccc(OC(=O)c2ccc(NC(=N)N)cc2)cc1 [Camostat]	> 100	1	2 ± 1.3	> 100	> 100	35	20.3 ± 21.3								
C[C@@H]1CCN(C(=O)CC#N)C[C@@H]1N(C)c1ncnc2[nH]ccc12 [Tofacitinib]	89	1	68.5 ± 6.2	51.6 ± 7	> 100	> 100	41.4 ± 13	1 ± 0.5							
NC(=O)c1ncn([C@@H]2O[C@H](CO)[C@@H](O)[C@H]2O)n1 [Ribavirin]	99	2	> 100	> 100	> 100	47	> 100	> 100							
Cc1cccc(C)c1OCC(=O)N[C@@H](Cc1ccccc1)[C@@H](O)C[C@H](Cc1ccccc1)NC(=O)[C@H](C(C)C)N1CCCNC1=O [Lopinavir]	> 100	5	25.1 ± 9.6	> 100			> 100	22.5 ± 4							
O=C1CCC(N2C(=O)c3ccccc3C2=O)C(=O)N1 (stereo not drawn) [Thalidomide]	> 100	1	> 100	54.6 ± 2.4	> 100	65	> 100	> 100	0.08						
CCN(CC)CCCC(C)Nc1ccnc2cc(Cl)ccc12 (stereo not drawn) [Chloroquine]	> 100	4	0.7 ± 0.2	> 100			10.7 ± 10.4	0.8 ± 0.8							
CCOC(=O)C1=C[C@@H](OC(CC)CC)[C@H](NC(C)=O)[C@@H](N)C1 [Oseltamivir]	90	1	> 100	> 100	> 100	44	> 100	> 100							
NC(=O)c1nc(F)c[nH]c1=O [Favipiravir]	52	3	> 100	84.2 ± 19.5	> 100	55	> 100	> 100	3.21						
CC(C)c1nc(CN(C)C(=O)N[C@H](C(=O)N[C@@H](Cc2ccccc2)C[C@H](O)[C@H](Cc2ccccc2)NC(=O)OCc2cncs2)C(C)C)cs1 [Ritonavir]										106/99.5 mg/dL	252/162 mg/dL	190/168 mg/dL	101/96 mg/dL	156/124 mg/dL	182/165 mg/dL
COc1cc2nc(N3CCN(C(=O)c4ccco4)CC3)nc(N)c2cc1OC [Prazosin]	> 100		2.4 ± 0.9		> 100		1.8 ± 2								
CCN(CCO)CCCC(C)Nc1ccnc2cc(Cl)ccc12 (stereo not drawn) [Hydroxychloroquine]	> 100	4	0.8 ± 0.1	> 100	> 100	51.8 ± 20.6	20 ± 15.9	1.9 ± 0.3							
COc1cc2c(c(OC)c1OC)-c1ccc(OC)c(=O)cc1[C@@H](NC(C)=O)CC2 [Colchicine]			> 100	> 100	> 100	42		> 100							
CCCCCCCCc1ccc(CCC(N)(CO)CO)cc1 [Fingolimod]	64	0	> 100	> 100	> 100	89	> 100	> 100							
CCS(=O)(=O)N1CC(CC#N)(n2cc(-c3ncnc4[nH]ccc34)cn2)C1 [Baricitinib]	> 50		6.7 ± 5.6	12.7 ± 5	> 50	> 50	22.9 ± 18	36 ± 24							
